Results from ChEMBL document CHEMBL1155067, “Carbonic anhydrase inhibitors: thioxolone versus sulfonamides for obtaining isozyme-selective inhibitors?” (Bioorg Med Chem Lett, 2008).

Assays:
[1] = molecular target: Carbonic anhydrase 13 (Mus musculus) (UniProt Q9D6N1); assay: Inhibition of mouse recombinant carbonic anhydrase 13 by stopped flow CO2 hydration method
Carbonic anhydrase 2 [2] = molecular target: T1, Carbonic anhydrase 2 (Homo sapiens, UniProt P00918)
[3] = molecular target: Carbonic anhydrase 4 (Homo sapiens) (UniProt P22748)
Carbonic anhydrase 4 (Homo sapiens), sequence (P22748 whole entry): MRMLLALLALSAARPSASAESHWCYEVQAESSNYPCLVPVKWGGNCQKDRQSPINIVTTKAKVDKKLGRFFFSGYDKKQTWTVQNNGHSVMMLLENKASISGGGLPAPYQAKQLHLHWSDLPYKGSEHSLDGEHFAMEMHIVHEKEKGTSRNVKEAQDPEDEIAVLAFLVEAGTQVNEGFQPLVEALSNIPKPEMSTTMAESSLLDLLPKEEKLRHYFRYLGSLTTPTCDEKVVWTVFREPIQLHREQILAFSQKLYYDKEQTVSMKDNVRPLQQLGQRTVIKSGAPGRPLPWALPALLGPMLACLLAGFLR
Description: Inhibition of human recombinant carbonic anhydrase 4 by stopped flow CO2 hydration method

[4] = molecular target: T2, Carbonic anhydrase 15 (Mus musculus) (UniProt Q99N23); assay: Inhibition of mouse recombinant carbonic anhydrase 15 by stopped flow CO2 hydration method
T2 sequence (whole entry): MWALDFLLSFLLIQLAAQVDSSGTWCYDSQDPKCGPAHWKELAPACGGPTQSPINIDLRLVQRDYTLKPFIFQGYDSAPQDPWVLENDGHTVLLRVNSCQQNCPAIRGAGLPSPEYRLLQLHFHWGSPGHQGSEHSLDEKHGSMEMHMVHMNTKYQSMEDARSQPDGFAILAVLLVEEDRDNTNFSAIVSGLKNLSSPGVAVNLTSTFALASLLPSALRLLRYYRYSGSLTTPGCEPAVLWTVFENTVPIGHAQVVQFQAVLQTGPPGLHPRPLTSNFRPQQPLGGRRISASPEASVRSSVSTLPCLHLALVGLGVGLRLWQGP

[5] = molecular target: Carbonic anhydrase 3 (Homo sapiens) (UniProt P07451)
Carbonic anhydrase 3 (Homo sapiens), sequence (P07451 whole entry): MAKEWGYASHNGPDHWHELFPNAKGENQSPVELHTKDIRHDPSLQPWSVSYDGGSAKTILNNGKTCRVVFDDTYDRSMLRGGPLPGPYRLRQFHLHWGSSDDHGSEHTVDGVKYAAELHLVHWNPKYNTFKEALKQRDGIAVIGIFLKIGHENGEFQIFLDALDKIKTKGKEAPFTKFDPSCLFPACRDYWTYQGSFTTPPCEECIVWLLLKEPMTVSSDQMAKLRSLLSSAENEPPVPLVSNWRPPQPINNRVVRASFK
Description: Inhibition of human recombinant carbonic anhydrase 3 by stopped flow CO2 hydration method

[6] = molecular target: Carbonic anhydrase 1 (Homo sapiens) (UniProt P00915)
Carbonic anhydrase 1 (Homo sapiens), sequence (P00915 2-261 limits assumed): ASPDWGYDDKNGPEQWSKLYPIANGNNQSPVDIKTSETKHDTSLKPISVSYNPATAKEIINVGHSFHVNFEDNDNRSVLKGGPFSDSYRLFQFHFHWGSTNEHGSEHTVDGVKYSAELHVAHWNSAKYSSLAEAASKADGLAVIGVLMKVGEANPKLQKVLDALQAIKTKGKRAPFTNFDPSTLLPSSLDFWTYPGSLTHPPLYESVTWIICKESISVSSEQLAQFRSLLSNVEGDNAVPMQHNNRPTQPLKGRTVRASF

[7] = molecular target: Carbonic anhydrase 5A, mitochondrial (Homo sapiens) (UniProt P35218)
Carbonic anhydrase 5A, mitochondrial (Homo sapiens), sequence (P35218 whole entry): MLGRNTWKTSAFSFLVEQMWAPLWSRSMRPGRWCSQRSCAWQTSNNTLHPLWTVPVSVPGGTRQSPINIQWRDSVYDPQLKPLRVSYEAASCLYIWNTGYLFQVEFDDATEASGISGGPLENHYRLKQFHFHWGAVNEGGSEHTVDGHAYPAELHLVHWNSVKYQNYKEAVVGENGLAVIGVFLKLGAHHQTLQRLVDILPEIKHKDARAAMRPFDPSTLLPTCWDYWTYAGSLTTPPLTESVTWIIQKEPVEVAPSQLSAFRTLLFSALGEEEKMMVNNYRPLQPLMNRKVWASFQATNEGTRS
Description: Inhibition of human recombinant carbonic anhydrase 5A by stopped flow CO2 hydration method

[8] = molecular target: Carbonic anhydrase 6 (Homo sapiens) (UniProt P23280)
Carbonic anhydrase 6 (Homo sapiens), sequence (P23280 whole entry): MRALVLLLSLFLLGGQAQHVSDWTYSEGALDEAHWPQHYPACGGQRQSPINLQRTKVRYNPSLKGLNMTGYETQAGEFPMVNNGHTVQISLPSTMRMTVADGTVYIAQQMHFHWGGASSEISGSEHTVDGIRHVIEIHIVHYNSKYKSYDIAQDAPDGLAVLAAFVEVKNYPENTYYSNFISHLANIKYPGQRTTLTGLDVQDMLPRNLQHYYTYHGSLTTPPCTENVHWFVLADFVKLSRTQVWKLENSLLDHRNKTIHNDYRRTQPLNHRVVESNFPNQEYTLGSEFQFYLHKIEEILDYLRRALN
Description: Inhibition of human recombinant carbonic anhydrase 6 by stopped flow CO2 hydration method

[9] = molecular target: Carbonic anhydrase 5B, mitochondrial (Homo sapiens) (UniProt Q9Y2D0)
Carbonic anhydrase 5B, mitochondrial (Homo sapiens), sequence (Q9Y2D0 whole entry): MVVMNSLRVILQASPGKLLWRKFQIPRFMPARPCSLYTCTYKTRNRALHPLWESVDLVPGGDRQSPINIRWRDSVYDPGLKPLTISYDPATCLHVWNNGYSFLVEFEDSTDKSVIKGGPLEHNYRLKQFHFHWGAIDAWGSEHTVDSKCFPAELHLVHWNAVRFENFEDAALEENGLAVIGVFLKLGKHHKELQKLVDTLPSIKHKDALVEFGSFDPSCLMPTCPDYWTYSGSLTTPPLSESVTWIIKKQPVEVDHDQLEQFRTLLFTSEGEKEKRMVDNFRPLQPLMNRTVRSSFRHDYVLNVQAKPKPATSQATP
Description: Inhibition of human recombinant carbonic anhydrase 5B by stopped flow CO2 hydration method

[10] = molecular target: Carbonic anhydrase 9 (Homo sapiens) (UniProt Q16790)
Description: Inhibition of human recombinant carbonic anhydrase 9 catalytic domain by stopped flow CO2 hydration method

[11] = molecular target: Carbonic anhydrase 7 (Homo sapiens) (UniProt P43166)
Carbonic anhydrase 7 (Homo sapiens), sequence (P43166 whole entry): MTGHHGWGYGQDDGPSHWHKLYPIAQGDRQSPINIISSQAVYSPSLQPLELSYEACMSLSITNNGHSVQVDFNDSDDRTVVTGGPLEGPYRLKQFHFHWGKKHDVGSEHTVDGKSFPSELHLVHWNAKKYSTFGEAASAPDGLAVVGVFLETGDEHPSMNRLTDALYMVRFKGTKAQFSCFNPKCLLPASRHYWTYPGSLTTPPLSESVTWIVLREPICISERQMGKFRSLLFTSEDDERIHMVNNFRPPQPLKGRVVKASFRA

[12] = molecular target: Carbonic anhydrase 12 (Homo sapiens) (UniProt O43570)
Carbonic anhydrase 12 (Homo sapiens), sequence (O43570 whole entry): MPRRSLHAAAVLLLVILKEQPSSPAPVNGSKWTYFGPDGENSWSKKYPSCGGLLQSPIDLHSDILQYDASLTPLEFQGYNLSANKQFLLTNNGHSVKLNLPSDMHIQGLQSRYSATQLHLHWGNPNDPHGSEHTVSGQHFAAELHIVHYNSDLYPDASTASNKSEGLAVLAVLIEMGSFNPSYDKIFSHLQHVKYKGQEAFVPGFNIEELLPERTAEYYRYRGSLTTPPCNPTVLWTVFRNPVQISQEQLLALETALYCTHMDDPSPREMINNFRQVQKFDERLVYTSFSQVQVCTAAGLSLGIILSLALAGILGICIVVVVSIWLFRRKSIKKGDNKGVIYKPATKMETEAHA
Description: Inhibition of human recombinant carbonic anhydrase 12 catalytic domain by stopped flow CO2 hydration method

[13] = molecular target: Carbonic anhydrase 14 (Homo sapiens) (UniProt Q9ULX7)
Carbonic anhydrase 14 (Homo sapiens), sequence (Q9ULX7 whole entry): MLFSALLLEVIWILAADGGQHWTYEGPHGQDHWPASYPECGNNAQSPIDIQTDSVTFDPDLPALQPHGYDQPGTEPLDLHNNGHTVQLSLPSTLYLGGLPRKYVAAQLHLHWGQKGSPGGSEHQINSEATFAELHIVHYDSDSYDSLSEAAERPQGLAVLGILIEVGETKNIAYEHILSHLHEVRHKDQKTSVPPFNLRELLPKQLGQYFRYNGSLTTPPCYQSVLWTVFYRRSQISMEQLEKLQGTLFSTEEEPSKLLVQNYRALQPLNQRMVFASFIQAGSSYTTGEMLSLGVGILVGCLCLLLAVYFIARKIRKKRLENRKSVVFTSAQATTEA
Description: Inhibition of human recombinant carbonic anhydrase 14 by stopped flow CO2 hydration method

Carbonic anhydrase 2 [14] = molecular target: T1, Carbonic anhydrase 2; assay: Inhibition of human recombinant carbonic anhydrase 2 assessed as activity of carbonic anhydrase 2 esterase activity against 4-nitrophenyl acetate
Carbonic anhydrase 2 [15] = molecular target: T1, Carbonic anhydrase 2; assay: Inhibition of human recombinant carbonic anhydrase 2 by oxygen-18 isotope exchange assay

Carbonic anhydrase 13 (Mus musculus), sequence (Q9D6N1 whole entry, looked up): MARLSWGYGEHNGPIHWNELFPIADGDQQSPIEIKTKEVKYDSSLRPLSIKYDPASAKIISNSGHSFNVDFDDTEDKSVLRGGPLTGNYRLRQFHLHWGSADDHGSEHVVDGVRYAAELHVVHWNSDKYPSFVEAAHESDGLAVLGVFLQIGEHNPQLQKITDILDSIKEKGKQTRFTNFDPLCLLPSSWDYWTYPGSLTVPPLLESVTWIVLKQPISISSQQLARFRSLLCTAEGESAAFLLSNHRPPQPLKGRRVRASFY

## NS(=O)(=O)c1cc(Cl)c(O)c(Cl)c1
[1]
  Kinact: 6.53 µM
Carbonic anhydrase 2 [2]
  Kinact: 0.058 µM
[3]
  Kinact: 0.072 µM
[4]
  Ki: 780 nM
[5]
  Kinact: 78.6 µM
[6]
  Kinact: 7.5 µM
[7]
  Ki: 620 nM
[8]
  Kinact: 6.17 µM
[9]
  Kinact: 0.61 µM
[10]
  Kinact: 0.081 µM
[11]
  Kinact: 0.072 µM
[12]
  Kinact: 0.076 µM
[13]
  Kinact: 8.12 µM

## O=c1oc2cc(O)ccc2s1 [TIOXOLONE]
[1]
  Kinact: 8.23 µM
Carbonic anhydrase 2 [2]
  Kinact: 6.82 µM
[3]
  Kinact: 8.41 µM
[4]
  Ki: 7870 nM
[5]
  Kinact: 6.56 µM
[6]
  Kinact: 0.091 µM
[7]
  Ki: 7060 nM
[8]
  Kinact: 4.93 µM
[9]
  Kinact: 9.04 µM
[10]
  Kinact: 6.67 µM
Carbonic anhydrase 2 [14]
  IC50: 1770 nM
[11]
  Kinact: 5.73 µM
[12]
  Kinact: 7.79 µM
[13]
  Kinact: 8.59 µM
Carbonic anhydrase 2 [15]
  Kinact: 314 µM
